Our source for the IC50 values is patent publication US20250163057A1, “DCN-1 MODULATING COMPOUNDS AND METHODS OF USE THEREOF” (Cellarity, Inc., priority 2023, published 2025).

The assay has as its target DCN1 (DCUND1) protein PONY domain (Homo sapiens (Human), UniProt Q96GG9). The experiment in a line: TR-FRET assay, DCN1 binding with FAM-labeled probe. On the procedure:
A TR-FRET assay was performed to evaluate the ability of the compounds to bind the DCN-1 protein.
The TR-FRET assay was designed following the Scott et al. protocol (Scott et al., Nat Chem Biol. 2017 August; 13(8): 850-857. Doi:10.1038/nchembio.2386). The recombinant form of the DCN1 (DCUND1) protein PONY domain was produced using an E. coli expression system at Viva Biotech (China). The DCN1 protein was biotinylated (EZ sulfo-NHS-LC-biotin; Thermofisher) for labeling with streptavidin terbium (Tb) cryptate in the reaction. The probe was changed to a non-covalent DCN1 inhibitor labeled with carboxyfluorescein (FAM; Zhou et al., Nat Commun. 2017; 8: 1150. Doi: 10.1038/s41467-017-01243-7). Buffer conditions were modified to enhance protein stability by exchanging Tween20 for TritonX and increasing NaCl to 200 mM. The compounds were screened against 5 nM DCN1 and 20 nM FAM-probe or 0.31 nM DCN1 and 900 nM total probe (100 nM FAM-labeled plus 800 nM unlabeled). The TR-FRET ratio between Tb-DCN1 and the FAM-labeled probe was measured in a 384-well opti-plate (Perkin Elmer) using a plate reader (BMG) at 1, 5, and 24 hrs after treatment with compound (final DMSO concentration of 0.1%).
On the technique in general: Time-resolved FRET reads energy transfer from a long-lived donor to a nearby acceptor.

The mark [1] stands for this setting: 24 hr after treatment with compound, read-out: TR FRET IC50 24 hr.
The mark [2] stands for this setting: TR FRET IC50 1 hr (nM), 1 hr after treatment with compound.
[3] abbreviates: read-out: TR FRET IC50 1 hr, 1 hr after treatment with compound.

Molecules are shown by their SMILES. Like-named read-outs stand apart in the source and are kept apart here.

Sequence of DCN1 (DCUND1) protein PONY domain (Q96GG9 60-248): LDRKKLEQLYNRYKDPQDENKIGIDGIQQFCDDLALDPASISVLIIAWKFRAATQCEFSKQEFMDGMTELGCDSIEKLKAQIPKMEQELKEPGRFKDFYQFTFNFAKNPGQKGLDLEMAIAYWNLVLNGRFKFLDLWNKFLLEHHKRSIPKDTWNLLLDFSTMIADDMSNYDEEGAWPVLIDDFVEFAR

As to `CCN1C(=O)[C@@H](NC(=O)c2cccc(C(F)(F)F)c2)[C@@H](c2ccc(F)cc2)c2c(CNC(=O)[C@H](C)C#N)nn(-c3ccccc3)c21` (relative stereo) [Compound I-85, N-((4RS,5RS)-3-(((S*)-2-cyanopropanamido)methyl)-7-ethyl-4-(4-fluorophenyl)-6-oxo-1-phenyl-4,5,6,7-tetrahydro-1H-pyrazolo[3,4-b]pyridin-5-yl)-3-(trifluoromethyl)benzamide], the IC50 is, setting by setting: under setting [1], 1000 to 3000 nM; under setting [2], 1000 to 3000 nM.
Take `CCN1C(=O)[C@@H](NC(=O)c2cccc(C(F)(F)F)c2)[C@@H](c2ccc(F)cc2)c2c(CNC(=O)/C=C/C(=O)O)nn(-c3ccccc3)c21` (racemic) [Compound I-59, rac-I-4-((((4R,5R)-7-ethyl-4-(4-fluorophenyl)-6-oxo-1-phenyl-5-(3-(trifluoromethyl)benzamido)-4,5,6,7-tetrahydro-1H-pyrazolo[3,4-b]pyridine-3-yl)methyl)amino)-4-oxobut-2-enoic acid]: the 50% inhibitory concentration (IC50) reads like this: under setting [1], 1000 to 3000 nM; under setting [2], 1000 to 3000 nM.
`CCN1C(=O)[C@@H](NC(=O)c2cccc(C(F)(F)F)c2)[C@@H](c2ccc(F)cc2)c2c(CN(C)C(=O)C(F)Cl)nn(-c3ccccc3)c21` (mixture of isomers) [Compound I-145]: the half-inhibitory concentration (IC50) was in the range of 200 to 1000 nM under setting [1] and 200 to 1000 nM under setting [2].
For the compound `CCN1C(=O)[C@@H](NC(=O)c2cccc(C(F)(F)F)c2)[C@@H](c2ccc(F)cc2)c2c(NC(=O)C(F)Cl)nn(-c3ccccc3)c21` (mixture of isomers) [Compound I-120], the IC50 by setting is: under setting [1], 200 to 1000 nM; under setting [2], 200 to 1000 nM.
With `CCN1C(=O)[C@@H](NC(=O)c2cccc(C(F)(F)F)c2)[C@@H](c2ccc(F)cc2)c2c(CC/C=C/C(=O)N(C)C)nn(-c3ccccc3)c21` (racemic) [Compound I-48], the IC50 is, setting by setting: under setting [1], at most 200 nM; under setting [3], at most 200 nM.
For `CCN1C(=O)[C@@H](NC(=O)c2cccc(C(F)(F)F)c2)[C@@H](c2ccc(F)cc2)c2c(CN(C#N)CCF)nn(-c3ccccc3)c21` (racemic) [Compound I-61], the IC50 fell in the range of 200 to 1000 nM under setting [1] and 200 to 1000 nM under setting [2].
On to `CCN1C(=O)[C@@H](NC(=O)CN2C(=O)CSc3ccccc32)[C@@H](C2CC2)c2c(C(=O)N3[C@H](C#N)C[C@H]4C[C@H]43)nn(C3CCOCC3)c21` [Compound I-510], for which the half-inhibitory concentration (IC50) lay within 1000 to 3000 nM under setting [1] and 1000 to 3000 nM under setting [2].
In the case of `CCN1C(=O)[C@@H](NC(=O)c2ccn(C(C)C)n2)[C@@H](C2CC2)c2c(C(=O)N3[C@H](C#N)C[C@H]4C[C@H]43)nn(C3CCOCC3)c21` [Compound I-472], the IC50 reads like this: under setting [1], at most 200 nM; under setting [2], 200 to 1000 nM.
The like results for `CCN1C(=O)[C@@H](NC(=O)c2cccc(F)c2)[C@@H](C2CC2)c2c(C(=O)N3[C@H](C#N)C[C@H]4C[C@H]43)nn(C3CCOCC3)c21` [Compound I-690] were, in that order, at most 200 nM and 200 to 1000 nM.
The like results for `CCN1C(=O)[C@@H](NC(=O)c2cccc(C(F)(F)F)c2)[C@@H](c2ccc(F)cc2)c2c(C(=O)N[C@H](C)C#N)nn(-c3ccccc3)c21` (mixture of isomers) [Compound I-157] were, in that order, 200 to 1000 nM and 1000 to 3000 nM.
Taken in the same sequence, the figures for `CCN1C(=O)[C@@H](NC(=O)C2CC(=O)N(Cc3ccccc3)C2)[C@@H](C2CC2)c2c(C(=O)N3[C@H](C#N)C[C@H]4C[C@H]43)nn(C3CCOCC3)c21` (stereo partly shown) [Compound I-435] were 1000 to 3000 nM and 1000 to 3000 nM.
Take `CCN1C(=O)[C@@H](NC(=O)Cc2cccc(C(F)(F)F)c2)[C@@H](C2CC2)c2c(C(=O)N3[C@H](C#N)C[C@H]4C[C@H]43)nn(C3CCOCC3)c21` [Compound I-592]: the IC50 is, setting by setting: under setting [1], 1000 to 3000 nM; under setting [2], 1000 to 3000 nM.
For `CCN1C(=O)[C@@H](NC(=O)c2cccc(C(F)(F)F)c2)[C@@H](c2ccc(F)cc2)c2c(CNC(=O)C3=C(C(=O)OC)CCC3)nn(-c3ccccc3)c21` [Compound I-135], the IC50 under setting [1] was 200 to 1000 nM and the IC50 under setting [2] lay in the range of 200 to 1000 nM.
For the compound `CCN1C(=O)[C@@H](NC(=O)CS(C)(=O)=O)[C@@H](C2CC2)c2c(C(=O)N3[C@H](C#N)C[C@H]4C[C@H]43)nn(C3CCOCC3)c21` [Compound I-546], the IC50 under setting [1] is 1000 to 3000 nM and the IC50 under setting [2] fell in the range of 1000 to 3000 nM.
As to `CCN1C(=O)[C@@H](NC(=O)c2cccc(C(F)(F)F)c2)[C@@H](c2ccc(F)cc2)c2c(CNC(=O)/C=C/C(N)=O)nn(-c3ccccc3)c21` (racemic) [Compound I-64, rac-N1-(((4R,5R)-7-ethyl-4-(4-fluorophenyl)-6-oxo-1-phenyl-5-(3-(trifluoromethyl)benzamido)-4,5,6,7-tetrahydro-1H-pyrazolo[3,4-b]pyridine-3-yl)methyl)fumaramide], the IC50 is, setting by setting: under setting [1], 200 to 1000 nM; under setting [2], 1000 to 3000 nM.
Taken in the same sequence, the figures for `CCN1C(=O)[C@@H](NC(=O)c2cccc(C(F)(F)F)c2)[C@@H](c2ccc(F)cc2)c2c(/C=C3\CCC(=O)N3)nn(-c3ccccc3)c21` (racemic) [Compound I-39, rac-N-((4R,5R)-7-ethyl-4-(4-fluorophenyl)-6-oxo-3-((E)-(5-oxopyrrolidin-2-ylidene)methyl)-1-phenyl-4,5,6,7-tetrahydro-1H-pyrazolo[3,4-b]pyridin-5-yl)-3-(trifluoromethyl)benzamide] were 1000 to 3000 nM and 1000 to 3000 nM.
In the case of `CCN1C(=O)[C@@H](NC(=O)c2cccc(C(F)(F)F)c2)[C@@H](c2ccc(F)cc2)c2c(CC/C=C/C(=O)OC)nn(-c3ccccc3)c21` (racemic) [Compound I-128, rac-methyl (E)-5-((4R,5R)-7-ethyl-4-(4-fluorophenyl)-6-oxo-1-phenyl-5-(3-(trifluoromethyl)benzamido)-4,5,6,7-tetrahydro-1H-pyrazolo[3,4-b]pyridin-3-yl)pent-2-enoate], the half-inhibitory concentration (IC50) fell in the range of 200 to 1000 nM under setting [1] and 1000 to 3000 nM under setting [2].
Taken in the same sequence, the figures for `CCN1C(=O)[C@@H](NC(=O)CC2CC(=O)c3ccc(OC)cc32)[C@@H](C2CC2)c2c(C(=O)N3[C@H](C#N)C[C@H]4C[C@H]43)nn(C3CCOCC3)c21` (stereo partly shown) [Compound I-618] were 1000 to 3000 nM and 1000 to 3000 nM.
`C=C(CN1CC(F)(F)C1)C(=O)NCc1nn(-c2ccccc2)c2c1[C@H](c1ccc(F)cc1)[C@H](NC(=O)c1cccc(C(F)(F)F)c1)C(=O)N2CC` (racemic) [Compound I-95]: the concentration for half-maximal inhibition (IC50) under setting [1] fell in the range of 200 to 1000 nM and the IC50 under setting [2] lay in the range of 200 to 1000 nM.
On to `C[C@@H](NC#N)c1nn(-c2ccccc2)c2c1[C@H](c1ccc(F)cc1)[C@H](NC(=O)c1cccc(C(F)(F)F)c1)C(=O)N2CCOP(=O)(O)O` [Compound I-162], for which the IC50 under setting [1] was at most 200 nM and the IC50 under setting [3] is at most 200 nM.
For `CCN1C(=O)[C@@H](NC(=O)c2cccc(C(F)(F)F)c2)[C@@H](C2CC2)c2c(CNC#N)nn(-c3ccccc3)c21` (racemic) [Compound I-98], the IC50 under setting [1] was at most 200 nM and the IC50 under setting [2] lay within 200 to 1000 nM.
For `C/C=C(\CN1CCOCC1)C(=O)NCc1nn(-c2ccccc2)c2c1[C@H](c1ccc(F)cc1)[C@H](NC(=O)c1cccc(C(F)(F)F)c1)C(=O)N2CC` (racemic) [Compound I-14], the IC50 was at most 200 nM under setting [1] and at most 200 nM under setting [3].
On to `CCN1C(=O)[C@@H](NC(=O)c2cccc(C(F)(F)F)c2)[C@@H](c2ccc(F)cc2)c2c(CNC(=O)C34CC3C4)nn(-c3ccccc3)c21` (stereo partly drawn) [Compound I-114, N-[[(4S, 5S)-7-ethyl-4-(4-fluorophenyl)-6-oxo-1-phenyl-5-[[3-(trifluoromethyl)benzoyl]amino]-4,5-dihydropyrazolo[3,4-b]pyridine-3-yl]methyl]bicyclo[1.1.0]butane-1-carboxamide], for which the IC50 reads like this: under setting [1], 200 to 1000 nM; under setting [2], 200 to 1000 nM.
Turning to `CCN1C(=O)[C@@H](NC(=O)c2cccc(C(F)(F)F)c2)[C@@H](c2ccc(F)cc2)c2c(CNC(=O)/C=C/C(=O)NCCN(C)C)nn(-c3ccccc3)c21` (racemic) [Compound I-154, rac-N1-(2-(dimethylamino)ethyl)-N4-(((4R,5R)-7-ethyl-4-(4-fluorophenyl)-6-oxo-1-phenyl-5-(3-(trifluoromethyl)benzamido)-4,5,6,7-tetrahydro-1H-pyrazolo[3,4-b]pyridine-3-yl)methyl)fumaramide], the 50% inhibitory concentration (IC50) under setting [1] was at most 200 nM and the 50% inhibitory concentration (IC50) under setting [2] lay in the range of 200 to 1000 nM.
For `CCN1C(=O)[C@@H](NC(=O)c2cccc(C(F)(F)F)c2)[C@@H](c2ccc(F)cc2)c2c(CC/C=C/C(=O)NC)nn(-c3ccccc3)c21` (racemic) [Compound I-91], the IC50 under setting [1] is 200 to 1000 nM and the IC50 under setting [2] lay within 200 to 1000 nM.
As for `C=C(Cc1nn(-c2ccccc2)c2c1[C@H](c1ccc(F)cc1)[C@H](NC(=O)c1cccc(C(F)(F)F)c1)C(=O)N2CC)C(N)=O` (racemic) [Compound I-105, rac-N-((4R,5R)-3-(2-carbamoylallyl)-7-ethyl-4-(4-fluorophenyl)-6-oxo-1-phenyl-4,5,6,7-tetrahydro-1H-pyrazolo[3,4-b]pyridin-5-yl)-3-(trifluoromethyl)benzamide], the IC50 under setting [1] lay within 200 to 1000 nM and the IC50 under setting [2] is 200 to 1000 nM.

As usually defined, the IC50 is the concentration at which inhibition is half-maximal.
